Laboratory results: US20190071416A1, “COMPOUNDS FOR TREATMENT OF CANCER AND EPIGENETICS” (Agency For Science, Technology and Research, priority 2015, published 2019)

target: T1, SMYD3 (Homo sapiens, UniProt Q9H7B4); experiment: SMYD3 biochemical assay (MTase-Glo, MAP3K2 peptide substrate); conditions: not given
T1 sequence (Q9H7B4 1-428): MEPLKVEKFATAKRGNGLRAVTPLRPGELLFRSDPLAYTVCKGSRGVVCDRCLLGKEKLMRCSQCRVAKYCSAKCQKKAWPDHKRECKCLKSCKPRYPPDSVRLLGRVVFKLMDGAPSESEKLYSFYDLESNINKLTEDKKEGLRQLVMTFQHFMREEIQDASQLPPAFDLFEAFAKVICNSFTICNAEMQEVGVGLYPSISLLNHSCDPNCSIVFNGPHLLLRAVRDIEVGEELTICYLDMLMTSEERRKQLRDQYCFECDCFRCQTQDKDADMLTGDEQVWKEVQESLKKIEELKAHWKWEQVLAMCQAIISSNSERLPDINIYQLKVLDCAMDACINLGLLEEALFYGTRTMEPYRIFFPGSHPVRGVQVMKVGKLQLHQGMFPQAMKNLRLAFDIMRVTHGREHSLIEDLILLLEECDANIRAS
In short: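 Methylation of MAP3K2 peptide (10 µM final) with SAM (1.0 µM final) by SMYD3, 30 min at room temperature. SAH formed was enzymatically converted to ATP and detected as luminescence with MTase-Glo reagents; IC50 by non-linear regression.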

Compound | activity against SMYD3
NC(=O)C1CCN(CC(=O)Nc2ccc(Br)cc2)CC1 [X1, reference compound] | inactive

same assay, conditions: Table 3; MTase assay, MAP3K2 peptide substrate; read-out: IC50

Compound | IC50 [nM]
CCCOC(=O)N1CCN(C(=O)c2ccc3c(Cl)cc(CC)nc3c2)CC1 [C004, Propyl 4-(4-chloro-2-ethylquinoline-7-carbonyl)piperazine-1-carboxylate] | 1400
CCCOC(=O)N1CCN(C(=O)c2ccc3c(Cl)c(C#N)c(C)nc3c2)CC1 [C006, Propyl 4-(4-chloro-3-cyano-2-methylquinoline-7-carbonyl)piperazine-1-carboxylate] | 2800
CCCOC(=O)N1C2CCCC1CN(C(=O)c1ccc3c(Cl)ccnc3c1)C2 [C007, Propyl 3-(4-chloroquinoline-7-carbonyl)-3,9-diazabicyclo[3.3.1]nonane-9-carboxylate] | 550
CCCOC(=O)N1CCN(C(=O)c2ccc3c(Cl)c4c(nc3c2)CCNC4)CC1 [C008, Propyl 4-(10-chloro-1,2,3,4-tetrahydrobenzo[b][1,6]naphthyridine-7-carbonyl)piperazine-1-carboxylate] | 4600
C[C@@H]1CN(C(=O)c2ccc3c(Cl)cc(-c4ccn(C)c4)nc3c2)CCN1C(=O)C[C@H]1CCC(=O)N1 [D001, (R)-5-(2((R)-4-(4-Chloro-2-(1-methyl-1H-pyrrol-3-yl)quinoline-7-carbonyl)-2-methylpiperazin-1-yl)-2-oxoethyl)pyrrolidin-2-one] | 13600
O=C(c1ccc2c(Cl)cc(-c3ccccc3)nc2c1)N1CCN(C(=O)c2cn(C3CC3)nn2)CC1 [D002, (4-Chloro-2-phenylquinolin-7-yl)(4-(1-cyclopropyl-1H-1,2,3-triazole-4-carbonyl)piperazin-1-yl)methanone] | 4
Cn1ccc(-c2cc(Cl)c3ccc(C(=O)N4CCN(C(=O)c5cn(C6CC6)nn5)CC4)cc3n2)c1 [D003, (4-Chloro-2-(1-methyl-1H-pyrrol-3-yl)quinolin-7-yl)(4-(1-cyclopropyl-1H-1,2,3-triazole-4-carbonyl)piperazin-1-yl)methanone] | 25
C[C@@H]1CN(C(=O)c2ccc3c(Cl)cc(-c4ccn(C)c4)nc3c2)CCN1C(=O)c1cn(C2CC2)nn1 [D004, (R)-(4-Chloro-2-(1-methyl-1H-pyrrol-3-yl)quinolin-7-yl)(4-(1-cyclopropyl-1H-1,2,3-triazole-4-carbonyl)-3-methylpiperazin-1-yl)methanone] | 13
C[C@@H]1CN(C(=O)c2ccc3c(Cl)cc(-c4ccccc4)nc3c2)CCN1C(=O)c1cn(C2CC2)nn1 [D005, (R)-(4-Chloro-2-phenylquinolin-7-yl)(4-(1-cyclopropyl-1H-1,2,3-triazole-4-carbonyl)-3-methylpiperazin-1-yl)methanone] | 77
C[C@@H]1CN(C(=O)c2ccc3c(Cl)cc(-c4ccc(C(C)(C)O)cc4)nc3c2)CCN1C(=O)c1cn(C2CC2)nn1 [D006, (R)-(4-Chloro-2-(4-(2-hydroxypropan-2-yl)phenyl)quinolin-7-yl)(4-(1-cyclopropyl-1H-1,2,3-triazole-4-carbonyl)-3-methylpiperazin-1-yl)methanone] | 52
Cn1cc(C(=O)N2CCN(C(=O)c3ccc4c(Cl)cc(-c5ccccc5)nc4c3)CC2)nn1 [D007, (4-Chloro-2-phenylquinolin-7-yl)(4-(1-methyl-1H-1,2,3-triazole-4-carbonyl)piperazin-1-yl)methanone] | 83
CC(C)(C)n1cc(C(=O)N2CCN(C(=O)c3ccc4c(Cl)cc(-c5ccccc5)nc4c3)CC2)nn1 [D008, (1-(Tert-butyl)-1H-1,2,3-triazol-4-yl)(4-(4-chloro-2-phenylquinoline-7-carbonyl)piperazin-1-yl)methanone] | 450
O=C(c1ccc2c(Cl)cc(-c3ccccc3)nc2c1)N1CCN(C(=O)c2cnn(C3CC3)c2)CC1 [D011, (4-Chloro-2-phenylquinolin-7-yl)(4-(1-cyclopropyl-1H-pyrazole-4-carbonyl)piperazin-1-yl)nethanone] | 200
CC(C)(CN)c1ccc(-c2cc(Cl)c3ccc(C(=O)N4CCN(C(=O)c5cn(C6CC6)nn5)CC4)cc3n2)cc1 [D012, (2-(4-(1-Amino-2-methylpropan-2-yl)phenyl)-4-chloroquinolin-7-yl)(4-(1-cyclopropyl-1H-1,2,3-triazole-4-carbonyl)piperazin-1-yl)nethanone] | 100
NC1(c2ccc(-c3cc(Cl)c4ccc(C(=O)N5CCN(C(=O)c6cn(C7CC7)nn6)CC5)cc4n3)cc2)CC1 [D013, (2-(4-(1-Aminocyclopropyl)phenyl)-4-chloroquinolin-7-yl)(4-(1-cyclopropyl-1H-1,2,3-triazole-4-carbonyl)piperazin-1-yl)methanone] | 78
COc1ccc(-c2cc(Cl)c3ccc(C(=O)N4CCN(C(=O)c5cn(C6CC6)nn5)CC4)cc3n2)cc1CN [D014, (2-(3-(Aminomethyl)-4-methoxyphenyl)-4-chloroquinolin-7-yl)(4-(1-cyclopropyl-1H-1,2,3-triazole-4-carbonyl)piperazin-1-yl)methanone] | 69
NCc1cc(-c2cc(Cl)c3ccc(C(=O)N4CCN(C(=O)c5cn(C6CC6)nn5)CC4)cc3n2)ccc1F [E019, (2-(3-(Aminomethyl)-4-fluorophenyl)-4-chloroquinolin-7-yl)(4-(1-cyclopropyl-1H-1,2,3-triazole-4-carbonyl)piperazin-1-yl)methanone] | 39
CN(C)Cc1cc(-c2cc(Cl)c3ccc(C(=O)N4CCN(C(=O)c5cn(C6CC6)nn5)CC4)cc3n2)ccc1F [E020, (4-Chloro-2-(3-((dimethylamino)methyl)-4-fluorophenyl)quinolin-7-yl)(4-(1-cyclopropyl-1H-1,2,3-triazole-4-carbonyl)piperazin-1-yl)methanone] | 58

same assay, conditions: Table 4; prior art compounds; read-out: IC50

Compound | IC50 [nM]
NC(=O)C1CCN(CC(=O)Nc2ccc(Br)cc2)CC1 [X1, reference compound] | > 250000
